Test results taken from patent publication US4250170A, “Antibacterial agents Bu-2349A and B and method of using same” (Bristol-Myers Company, priority 1979, dated 1981).
Values after ≈ are worked out from the molar mass of the structure shown.

Key:
[1] = tested on: Staphylococcus aureus Smith (Sa-2); assay: MIC, two-fold agar dilution; format: cell-based; conditions: 18 h, Table 3, Mueller-Hinton agar, 10^-4 dilution
[2] = tested on: Staphylococcus aureus (Sa-77), ANT(4'); assay: MIC, two-fold agar dilution; format: cell-based; conditions: 18 h
[3] = tested on: Mycobacterium phlei D88 (Mp-1); assay: MIC, two-fold agar dilution; format: cell-based; conditions: Mycolicibacterium phlei, 18 h; Table 3; Mueller-Hinton agar, 10^-4 dilution
[4] = tested on: Escherichia coli (Ec-62), AAC(3)- 1; assay: MIC, two-fold agar dilution; format: cell-based; conditions: 18 h, Table 3, Mueller-Hinton agar, 10^-4 dilution, enzyme AAC(3)- 1
[5] = tested on: Escherichia coli (Ec-72), ANT(2"); assay: MIC, two-fold agar dilution; format: cell-based; conditions: 18 h, Table 3, Mueller-Hinton agar, 10^-4 dilution, enzyme ANT(2")
Proteus vulgaris (Pv-1) = assay: MIC, two-fold agar dilution; format: cell-based; conditions: 18 h, Table 3, Mueller-Hinton agar, 10^-4 dilution
Proteus rettgeri (Pr-2) = assay: MIC, two-fold agar dilution; format: cell-based; conditions: Providencia rettgeri, 18 h; Table 3; Mueller-Hinton agar, 10^-4 dilution
[6] = tested on: Neisseria meningitidis (Nm-1); assay: MIC, two-fold agar dilution; format: cell-based; conditions: 18 h, Table 3, GC agar, 10^-2 dilution
[7] = tested on: Sphaerophorus necrophorus (Sn-1); assay: MIC against anaerobic bacteria; format: cell-based; conditions: Fusobacterium necrophorum, 18 h; Table 4; GAM Medium, pH 7
[8] = tested on: Veillonella parvula ATCC 17745 (Vp-1); assay: MIC against anaerobic bacteria; format: cell-based; conditions: ATCC17745, 18 h, Table 4, GAM Medium, pH 7
[9] = tested on: Clostridium perfringens (Cp-1); assay: microbe, parasite or virus in culture; format: cell-based; conditions: 18 h, pH 7
[10] = tested on: Peptostreptococcus anaerobium B43 (Pb-1); assay: MIC against anaerobic bacteria; format: cell-based; conditions: 18 h, Table 4, GAM Medium, pH 7
E. coli Juhl = assay: experimental infections in mice; format: in vivo; conditions: Escherichia coli, 120 h, im, 100 X LD50 ip challenge, 5 days, read-out: PD50 (median protective dose)
Procedure: (§1) The in vivo antibacterial activity of Bu-2349A was determined by experimental infections in mice. Mice were challenged via the intraperitoneal route with a 100 X LD50 dose of the pathogens in a 5% suspension of hog gastric mucin (American Laboratories, Omaha, Neb.). Bu-2349A was administered by the intramuscular route immediately after the bacterial challenge.

K. pneumoniae A9977 = assay: experimental infections in mice; format: in vivo; conditions: Klebsiella pneumoniae, A9977, 120 h, im, 100 X LD50 ip challenge, 5 days, read-out: PD50 (median protective dose)
Procedure: as §1

P. mirabilis A9554 = assay: experimental infections in mice; format: in vivo; conditions: Proteus mirabilis, A9554, 120 h, im, 100 X LD50 ip challenge, 5 days, read-out: PD50 (median protective dose)
Procedure: as §1

P. vulgaris A9436 = assay: experimental infections in mice; format: in vivo; conditions: Proteus vulgaris, A9436, 120 h, im, 100 X LD50 ip challenge, 5 days, read-out: PD50 (median protective dose)
Procedure: as §1

S. aureus Smith = assay: experimental infections in mice; format: in vivo; conditions: Staphylococcus aureus, 120 h, im, 100 X LD50 ip challenge, 5 days, read-out: PD50 (median protective dose)
Procedure: as §1

S. pneumoniae A20759 = assay: experimental infections in mice; format: in vivo; conditions: im
Procedure: as §1

[11] = mouse blood level, paper disc-agar plate assay; format: in vivo; conditions: mice, im, 50 mg./kg.
Procedure: Blood levels were determined in mice following intramuscular administration of Bu-2349A at a dose of 50 mg./kg. Blood samples were collected from orbital sinuses and assayed by the paper disc-agar plate method using B. subtilis PCI 219 as the test organism.

acute LD50 in mice = conditions: mouse, in vivo

Q: Which MIC [1] does the source give for `C=C1OC(OC2C(CO)OC(Oc3ccc(C(=O)NCCCNCCCCNCCCCN)cc3)C2O)C(O)C(OC2OC(CO)C(OC3OC(C)C(N)C(O)C3NC(=O)C(C)N)C(O)C2O)C1O` (stereo not shown) [Bu-2349A] here?
A: 3.1 µg/mL (≈ 3.13 µM)

Q: What about the MIC [2] of the same molecule?
A: 12.5 µg/mL (≈ 12.6 µM)

Q: What about the MIC [3] of the same molecule?
A: 3.1 µg/mL (≈ 3.13 µM)

Q: And the MIC [4]?
A: 1.6 µg/mL (≈ 1.62 µM)

Q: And the MIC [5]?
A: 1.6 µg/mL (≈ 1.62 µM)

Q: And the MIC (Proteus vulgaris (Pv-1))?
A: 1.6 µg/mL (≈ 1.62 µM)

Q: And the MIC (Proteus rettgeri (Pr-2))?
A: 0.8 µg/mL (≈ 0.808 µM)

Q: And the MIC [6]?
A: > 100 µg/mL

Q: What about the MIC [7] of the same molecule?
A: > 100 µg/mL

Q: What about the MIC [8] of the same molecule?
A: > 100 µg/mL

Q: What about the MIC [9] of the same molecule?
A: > 100 µg/mL

Q: What about the MIC [10] of the same molecule?
A: > 100 µg/mL

Q: What about the ED50 (E. coli Juhl) of the same molecule?
A: 5.4 mg/kg

Q: And the ED50 (K. pneumoniae A9977)?
A: 7.2 mg/kg

Q: And the ED50 (P. mirabilis A9554)?
A: 16 mg/kg

Q: And the ED50 (P. vulgaris A9436)?
A: 12 mg/kg

Q: What about the ED50 (S. aureus Smith) of the same molecule?
A: 3.2 mg/kg

Q: What about the ED50 (S. pneumoniae A20759; Streptococcus pneumoniae, A20759, 120 h, 100 X LD50 ip challenge, 5 days, read-out: PD50 (median protective dose)) of the same molecule?
A: > 100 mg/kg

Q: And the “activity against the S. pneumoniae infection” value (S. pneumoniae A20759)?
A: inactive

Q: And the “antibiotic activity in blood after 2 hours” value ([11]; after 2 hours)?
A: No antibiotic activity was detected

Q: And the “elimination from the blood stream” value ([11]; after the peak)?
A: rapid elimination from the blood stream

Q: And the concentration at 0.25 h ([11]; mouse, blood, 15 minutes)?
A: 15000 ng/mL

Q: What about the concentration at 0.5 h ([11]; mouse, blood, 30 minutes) of the same molecule?
A: 12000 ng/mL

Q: And the concentration at 1 h ([11]; mouse, blood, 60 minutes)?
A: 2800 ng/mL

Q: What about the concentration at 2 h ([11]; mouse, blood, 120 minutes) of the same molecule?
A: > 1000 ng/mL

Q: And the Tmax ([11]; mouse, blood, read-out: time of peak blood level (converted))?
A: 15 min

Q: What about the LD50 (acute LD50 in mice; im, intramuscular) of the same molecule?
A: 315 mg/kg

Q: And the LD50 (acute LD50 in mice; intravenous)?
A: 35 mg/kg
